According to article PMC8058764 (Chemical Research in Toxicology, 2021):

Experiments:
neonatal pooled HLMs = test: Inhibition of DHEA-S metabolism; type: biochemical, human; settings: DHEA-S 50 μM, HLMs 0.05 mg/mL, lopinavir 8 μM without or with ritonavir 0.5 μM, 30 min
[1] = Lopinavir intrinsic clearance by adult human liver microsomes; type: in vitro ADME
[2] = Lopinavir intrinsic clearance by neonatal human liver microsomes; type: in vitro ADME; settings: for mean lopinavir percent loss: lopinavir 1 μM, 30 min
CYP17A1 = settings: NCI-H295R cells; cited from earlier work
CYP21A2 = settings: NCI-H295R cells; cited from earlier work
[3] = both, human, pooled adult human liver microsomes, pH 7.4
[4] = human, pooled neonatal human liver microsomes, pH 7.4

Structure (SMILES): Cc1cccc(C)c1OCC(=O)N[C@@H](Cc1ccccc1)[C@@H](O)C[C@H](Cc1ccccc1)NC(=O)[C@H](C(C)C)N1CCCNC1=O [lopinavir]
- formation rate of 16α-hydroxy DHEA-S in neonatal HLMs (neonatal pooled HLMs): 1.19 nmol/min/mg protein
- mean lopinavir percent loss ([1]; adult HLMs 0.02 mg/mL, lopinavir 1 μM, 30 min): about 94%
- lopinavir loss in presence of ritonavir ([1]; adult HLMs 0.02 mg/mL, lopinavir 1 μM, ritonavir 62.5 nM): less than 20%
- half-life at 1 μM [1, 3]: 7.18 min
- microsomal CLint at 1 μM [1, 3]: 4830 µL/min/mg
- half-life at 1 μM [2, 4]: 52.1 min
- microsomal CLint at 1 μM [2, 4]: 133 µL/min/mg
- mean lopinavir percent loss ([2]; neonatal HLMs 0.02 mg/mL): 21%
- mean lopinavir percent loss ([2]; neonatal HLMs 0.1 mg/mL): 32%
- inhibition of CYP17A1 (CYP17A1): moderate inhibition
- inhibition of CYP21A2 (CYP21A2): moderate inhibition
